Assay [1] concerns P. aeruginosa ATCC 27853. As to the kind of experiment: In vivo efficacy in mouse blood infection model (neutropenic Swiss mice). The settings on record: compound, free base 4 mg/kg intravenously 2 h after inoculation, blood at 4 h. Put shortly:
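Activity expressed as Δlog10 CFU/mL blood, treated minus saline control, 4 h after a single 4 mg/kg (free base) i.v. dose given 2 h post-infection. Bloodstream infection from i.v. early log-phase inoculum in Swiss mice made neutropenic by i.p. cyclophosphamide on days −4 (150 mg/kg) and −1 (100 mg/kg).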

Assay [2] relates to Enterobacter cloacae. The gist of the method: (§1)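 Broth microdilution, CAMHB, per CLSI M100-S18; compounds as TFA salts; polymyxin B (sulphate) control; read-out MIC.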
In assay [3] the test system is Acinetobacter baumannii. Put shortly: as §1
In assay [4] the test system is Klebsiella pneumoniae. Put shortly:
as §1

For assay [5], the system named is Pseudomonas aeruginosa. The gist of the method:
as §1

In brackets after ≈: the same amount, converted by molar mass. Positions of bridges follow the written chain, without caps; N, C: chain ends. Non-standard residues stand in square brackets, D forms with d. Residues, ends and D or L forms follow the SMILES beside them. *: point of attachment. Benzoyl(4-Et) = CCc1ccc(C(=O)*)cc1; X18 = O=C(c1ccc(Cl)c(C(F)(F)F)c1)*; X21 = O=C(c1ccc(C(F)(F)F)c(Cl)c1)*; X15 = O=C(c1ccc(Cl)c(F)c1)*; X19 = Cc1cc(Cl)cc(C(=O)*)c1; X22 = CC(C)c1ccc(C(=O)*)cc1; Dab = NCC[C@H](N)C(=O)O; Abu = CC[C@H](N)C(=O)O; Dap = NC[C@H](N)C(=O)O Some results are limits rather than exact numbers.

With `CC[C@@H]1NC(=O)[C@@H](CC(C)C)NC(=O)[C@H](CCN)NC(=O)[C@@H](NC(=O)[C@H](CN)NC(=O)[C@@H](NC(=O)[C@H](CCN)NC(=O)c2ccc(C(C)C)cc2)[C@@H](C)O)CCNC(=O)[C@H]([C@@H](C)O)NC(=O)[C@H](CCN)NC(=O)[C@H](CCN)NC1=O` [Compound 99] (X22-[Dab]T[Dap][Dab][Dab][dL][Abu][Dab][Dab]T; lactam 4-C), the “Δ log (Treated-Control at 4 h)” value in assay [1] was −3.21 log10 CFU/mL. Besides, in assay [2], the “Minimum inhibitory concentration, Ec FADDI-EC001” value worked out at 0.25 µg/mL (≈ 0.221 µM); the “Minimum inhibitory concentration, Ec FADDI-EC003” value stood at 0.25 µg/mL (≈ 0.221 µM); the “Minimum inhibitory concentration, Ec FADDI-EC006” value came out at 0.5 µg/mL (≈ 0.441 µM). Further, in assay [3], the MIC (usually the least concentration at which growth counts as inhibited) was 1 µg/mL (≈ 0.882 µM); the “Minimum inhibitory concentration, Ab A ATCC 17978” value turned out to be 0.25 µg/mL (≈ 0.221 µM); the “Minimum inhibitory concentration, Ab ATCC 19606” value was 1 µg/mL (≈ 0.882 µM); the “Minimum inhibitory concentration, Ab FADDI-AB034” value came to 0.25 µg/mL (≈ 0.221 µM). Besides, the MIC in assay [4] amounted to 0.5 µg/mL (≈ 0.441 µM). For the same compound, in assay [5], the MIC came to 1 µg/mL (≈ 0.882 µM); the “Minimum inhibitory concentration, Pa ATCC 27853” value is 1 µg/mL (≈ 0.882 µM); the “Minimum inhibitory concentration, Pa FADDI-PA022” value amounted to 0.5 µg/mL (≈ 0.441 µM); the “Minimum inhibitory concentration, Pa FADDI-PA025” value came out at 2 µg/mL (≈ 1.76 µM).
Take `CCc1ccc(C(=O)N[C@@H](CCN)C(=O)N[C@H](C(=O)N[C@@H](CN)C(=O)N[C@H]2CCNC(=O)[C@H]([C@@H](C)O)NC(=O)[C@H](CCN)NC(=O)[C@H](CCN)NC(=O)[C@H](CC)NC(=O)[C@@H](CC(C)C)NC(=O)[C@H](CCN)NC2=O)[C@@H](C)O)cc1` [Compound 100] ({Benzoyl(4-Et)}-[Dab]T[Dap][Dab][Dab][dL][Abu][Dab][Dab]T; lactam 4-C): the “Δ log (Treated-Control at 4 h)” value in assay [1] is −3.83 (−3.83) log10 CFU/mL. In assay [2], the “Minimum inhibitory concentration, Ec FADDI-EC001” value turned out to be 0.25 µg/mL (≈ 0.223 µM); the “Minimum inhibitory concentration, Ec FADDI-EC003” value is 0.5 µg/mL (≈ 0.447 µM); the “Minimum inhibitory concentration, Ec FADDI-EC006” value is 0.5 µg/mL (≈ 0.447 µM). In assay [3], the MIC was found to be 2 µg/mL (≈ 1.79 µM); the “Minimum inhibitory concentration, Ab A ATCC 17978” value stood at 1 µg/mL (≈ 0.893 µM); the “Minimum inhibitory concentration, Ab ATCC 19606” value is 2 µg/mL (≈ 1.79 µM); the “Minimum inhibitory concentration, Ab FADDI-AB034” value stood at 1 µg/mL (≈ 0.893 µM). The compound further showed an MIC in assay [4] of 0.5 µg/mL (≈ 0.447 µM). Also, in assay [5], the MIC is 0.5 µg/mL (≈ 0.447 µM); the “Minimum inhibitory concentration, Pa ATCC 27853” value amounted to 0.5 µg/mL (≈ 0.447 µM); the “Minimum inhibitory concentration, Pa FADDI-PA022” value was 0.5 µg/mL (≈ 0.447 µM); the “Minimum inhibitory concentration, Pa FADDI-PA025” value came to 2 µg/mL (≈ 1.79 µM).
Take `CC[C@@H]1NC(=O)[C@@H](CC(C)C)NC(=O)[C@H](CCN)NC(=O)[C@@H](NC(=O)[C@H](CN)NC(=O)[C@@H](NC(=O)[C@H](CCN)NC(=O)c2ccc(Cl)c(F)c2)[C@@H](C)O)CCNC(=O)[C@H]([C@@H](C)O)NC(=O)[C@H](CCN)NC(=O)[C@H](CCN)NC1=O` [Compound 107] (X15-[Dab]T[Dap][Dab][Dab][dL][Abu][Dab][Dab]T; lactam 4-C): in assay [1], the “Δ log (Treated-Control at 4 h)” value is given as −2.98 log10 CFU/mL. Moreover, in assay [2], the “Minimum inhibitory concentration, Ec FADDI-EC001” value is 0.25 µg/mL (≈ 0.219 µM); the “Minimum inhibitory concentration, Ec FADDI-EC003” value worked out at 0.25 µg/mL (≈ 0.219 µM); the “Minimum inhibitory concentration, Ec FADDI-EC006” value amounted to 0.25 µg/mL (≈ 0.219 µM). Further, in assay [3], the MIC was found to be 2 µg/mL (≈ 1.75 µM); the “Minimum inhibitory concentration, Ab A ATCC 17978” value came out at 0.5 µg/mL (≈ 0.437 µM); the “Minimum inhibitory concentration, Ab ATCC 19606” value is 2 µg/mL (≈ 1.75 µM); the “Minimum inhibitory concentration, Ab FADDI-AB034” value turned out to be 0.25 µg/mL (≈ 0.219 µM). Also, the MIC in assay [4] came to 0.25 µg/mL (≈ 0.219 µM). Besides, in assay [5], the MIC worked out at 0.5 µg/mL (≈ 0.437 µM); the “Minimum inhibitory concentration, Pa ATCC 27853” value is 0.5 µg/mL (≈ 0.437 µM); the “Minimum inhibitory concentration, Pa FADDI-PA022” value came out at 0.5 µg/mL (≈ 0.437 µM); the “Minimum inhibitory concentration, Pa FADDI-PA025” value was determined as 2 µg/mL (≈ 1.75 µM).
Take `CC[C@@H]1NC(=O)[C@@H](CC(C)C)NC(=O)[C@H](CCN)NC(=O)[C@@H](NC(=O)[C@H](CN)NC(=O)[C@@H](NC(=O)[C@H](CCN)NC(=O)c2ccc(Cl)c(C(F)(F)F)c2)[C@@H](C)O)CCNC(=O)[C@H]([C@@H](C)O)NC(=O)[C@H](CCN)NC(=O)[C@H](CCN)NC1=O` [Compound 112] (X18-[Dab]T[Dap][Dab][Dab][dL][Abu][Dab][Dab]T; lactam 4-C): the “Δ log (Treated-Control at 4 h)” value in assay [1] is recorded as −3.15 log10 CFU/mL. Besides, in assay [2], the “Minimum inhibitory concentration, Ec FADDI-EC001” value came to 0.5 µg/mL (≈ 0.419 µM); the “Minimum inhibitory concentration, Ec FADDI-EC003” value worked out at 0.25 µg/mL (≈ 0.209 µM); the “Minimum inhibitory concentration, Ec FADDI-EC006” value was 0.5 µg/mL (≈ 0.419 µM). In assay [3], the MIC was 0.25 µg/mL (≈ 0.209 µM); the “Minimum inhibitory concentration, Ab A ATCC 17978” value was under 0.125 µg/mL; the “Minimum inhibitory concentration, Ab ATCC 19606” value came to 0.25 µg/mL (≈ 0.209 µM); the “Minimum inhibitory concentration, Ab FADDI-AB034” value is 0.25 µg/mL (≈ 0.209 µM). The MIC in assay [4] stood at 0.5 µg/mL (≈ 0.419 µM). In assay [5], the MIC was found to be 0.5 µg/mL (≈ 0.419 µM); the “Minimum inhibitory concentration, Pa ATCC 27853” value worked out at 0.5 µg/mL (≈ 0.419 µM); the “Minimum inhibitory concentration, Pa FADDI-PA022” value turned out to be 0.5 µg/mL (≈ 0.419 µM); the “Minimum inhibitory concentration, Pa FADDI-PA025” value is 1 µg/mL (≈ 0.838 µM).
In the case of `CC[C@@H]1NC(=O)[C@@H](CC(C)C)NC(=O)[C@H](CCN)NC(=O)[C@@H](NC(=O)[C@H](CN)NC(=O)[C@@H](NC(=O)[C@H](CCN)NC(=O)c2cc(C)cc(Cl)c2)[C@@H](C)O)CCNC(=O)[C@H]([C@@H](C)O)NC(=O)[C@H](CCN)NC(=O)[C@H](CCN)NC1=O` [Compound 114] (X19-[Dab]T[Dap][Dab][Dab][dL][Abu][Dab][Dab]T; lactam 4-C), in assay [1], the “Δ log (Treated-Control at 4 h)” value is listed as −2.57 log10 CFU/mL. Besides, in assay [2], the “Minimum inhibitory concentration, Ec FADDI-EC001” value stood at 0.25 µg/mL (≈ 0.219 µM); the “Minimum inhibitory concentration, Ec FADDI-EC003” value was 0.25 µg/mL (≈ 0.219 µM); the “Minimum inhibitory concentration, Ec FADDI-EC006” value was 0.25 µg/mL (≈ 0.219 µM). Besides, in assay [3], the MIC came out at 2 µg/mL (≈ 1.75 µM); the “Minimum inhibitory concentration, Ab A ATCC 17978” value turned out to be 0.5 µg/mL (≈ 0.439 µM); the “Minimum inhibitory concentration, Ab ATCC 19606” value amounted to 2 µg/mL (≈ 1.75 µM); the “Minimum inhibitory concentration, Ab FADDI-AB034” value came out at 0.5 µg/mL (≈ 0.439 µM). The compound further showed an MIC in assay [4] of 0.25 µg/mL (≈ 0.219 µM). Further, in assay [5], the MIC stood at 0.5 µg/mL (≈ 0.439 µM); the “Minimum inhibitory concentration, Pa ATCC 27853” value turned out to be 0.5 µg/mL (≈ 0.439 µM); the “Minimum inhibitory concentration, Pa FADDI-PA022” value is 1 µg/mL (≈ 0.877 µM); the “Minimum inhibitory concentration, Pa FADDI-PA025” value was 1 µg/mL (≈ 0.877 µM).
Consider `CC[C@@H]1NC(=O)[C@@H](CC(C)C)NC(=O)[C@H](CCN)NC(=O)[C@@H](NC(=O)[C@H](CN)NC(=O)[C@@H](NC(=O)[C@H](CCN)NC(=O)c2ccc(C(F)(F)F)c(Cl)c2)[C@@H](C)O)CCNC(=O)[C@H]([C@@H](C)O)NC(=O)[C@H](CCN)NC(=O)[C@H](CCN)NC1=O` [Compound 115] (X21-[Dab]T[Dap][Dab][Dab][dL][Abu][Dab][Dab]T; lactam 4-C), for which the “Δ log (Treated-Control at 4 h)” value in assay [1] is reported as −2.71 log10 CFU/mL. In assay [2], the “Minimum inhibitory concentration, Ec FADDI-EC001” value amounted to 0.25 µg/mL (≈ 0.209 µM); the “Minimum inhibitory concentration, Ec FADDI-EC003” value amounted to 0.25 µg/mL (≈ 0.209 µM); the “Minimum inhibitory concentration, Ec FADDI-EC006” value came to 0.25 µg/mL (≈ 0.209 µM). Moreover, in assay [3], the MIC came to 0.5 µg/mL (≈ 0.419 µM); the “Minimum inhibitory concentration, Ab A ATCC 17978” value turned out to be 0.5 µg/mL (≈ 0.419 µM); the “Minimum inhibitory concentration, Ab ATCC 19606” value turned out to be 0.5 µg/mL (≈ 0.419 µM); the “Minimum inhibitory concentration, Ab FADDI-AB034” value is 0.5 µg/mL (≈ 0.419 µM). Moreover, the MIC in assay [4] is 0.125 µg/mL (≈ 0.105 µM). Besides, in assay [5], the MIC stood at 1 µg/mL (≈ 0.838 µM); the “Minimum inhibitory concentration, Pa ATCC 27853” value was 1 µg/mL (≈ 0.838 µM); the “Minimum inhibitory concentration, Pa FADDI-PA022” value was found to be 0.5 µg/mL (≈ 0.419 µM); the “Minimum inhibitory concentration, Pa FADDI-PA025” value came to 1 µg/mL (≈ 0.838 µM).
